Measured values taken from article PMC4735493, “The Biological Effects of Bilirubin Photoisomers” (PLoS ONE, 2016).
Like-named read-outs stand apart in the source and are kept apart here. Marks after values point to notes of the source that are not given here.

Experiments:
Cyclin E = experiment: Gene expression by real-time PCR: Cyclin E; type: cell-based, human; settings: SH-SY5Y; bilirubin 24 μM, PI 15%; median (IQ range), n = 5
Description: (§1) Briefly, total RNA was isolated in TriReagent (Sigma-Aldrich, St Louis, MO, USA) according to the manufacture's protocol and stored at -80°C until analysis. RNA quantity and purity were evaluated spectrophotometrically at 260 nm, and RNA integrity was evaluated by agarose gel electrophoresis. Retrotranscription of total RNA (1 μg) was performed with an iScript cDNA Synthesis Kit (Bio-Rad Laboratories, Hercules, CA, USA) according to the manufacturer's instructions. The final cDNA was conserved at -20°C until used. The primers for the targeted genes and the two housekeeping genes [hypoxanthine-guanine phosphoribosyltransferase (Hprt1) and glyceraldehydes 3-phosphate dehydrogenase (Gapdh)] were designed using Beacon Designer 2.0 software (PREMIER Biosoft International, Palo Alto, CA, USA). The quantitative analysis of gene expression was performed by real-time PCR. […] The relative quantification was made using iCycler iQ software, version 3.1 (Bio-Rad Laboratories, Hercules, CA, USA), by the ΔΔCt method, taking into account the efficiencies of the individual's genes, and normalizing the results to the two housekeeping genes. […] The results are expressed as the mean ± SD.

HMOX1 = experiment: Gene expression by real-time PCR: HMOX1; type: cell-based, human; settings: SH-SY5Y; bilirubin 24 μM, PI 15%; median (IQ range), n = 5; 1 hr exposure
Description: as §1

[1] = Stability of pigments in the incubation medium by HPLC
Description: The HPLC analyses were performed using an Agilent 1200 system (CA, USA) with a diode-array detector. […] The mobile phase consisted of 0.1 M di-n-octylamine acetate in methanol and water; the stationary phase was represented by a Poroshell 120, SB-C18 column (4.6 x 100 mm, 2.7 μm; Agilent, CA, USA). Samples were prepared by mixing 20 μl of bilirubin solution with 180 μl of ice-cold 0.1 M di-n-octylamine acetate in methanol, then vortexed and centrifuged to eliminate proteins. Twenty μl of the prepared sample was injected onto the column.
To check the stability of bilirubin PI, concentrations of bilirubin IXα, and EZ/ZE-bilirubins as well as Z-lumirubin after 1 and 24 hrs in the incubation medium were analysed by HPLC method (see above).

MRP1 = experiment: Gene expression by real-time PCR: MRP1; type: cell-based, human; settings: SH-SY5Y; bilirubin 24 μM, PI 15%; median (IQ range), n = 5
Description: as §1, with “The effect of bilirubin and bilirubin PI (24 μM bilirubin (corresponding to 140 nM Bf), 15% bilirubin PI, and a mixture of bilirubin and 15% PI) on the expression of genes involved in heme catabolism and in the regulation of the cell cycle (Table 1) was investigated in SH-SY5Y cells exposed to pigments for 1 and 24 hrs, respectively. Briefly,” for “Briefly,”, “The primers for the targeted genes and the two housekeeping genes [hypoxanthine-guanine phosphoribosyltransferase (Hprt1) and glyceraldehydes 3-phosphate dehydrogenase (Gapdh)] were designed using Beacon Designer 2.0 software (PREMIER Biosoft International, Palo Alto, CA, USA).” left out

Cyclin D1 = experiment: Gene expression by real-time PCR: Cyclin D1; type: cell-based, human; settings: SH-SY5Y; bilirubin 24 μM, PI 15%; median (IQ range), n = 5
Description: as §1

[2] = molecular target: T1, human serum albumin (HSA) (Homo sapiens, UniProt P02768); experiment: Binding constant by fluorescence quenching of intrinsic Trp fluorescence
Description: Thus, the binding constant for bilirubin and lumirubin to HSA was determined by quenching of the intrinsic Trp fluorescence. […] F0 was the fluorescence of HSA without a quencher, F the fluorescence of HSA with a quencher, CL was the quencher concentration, and CP was the concentration of HSA. The effect of cooperative binding of lumirubin and bilirubin was also studied, and the results were compared to the Ka obtained in the systems with biliverdin and gossypol, which served as a displacing agent of bilirubin from HSA [31, 32].

BLVRA = experiment: Gene expression by real-time PCR: BLVRA; type: cell-based, human; settings: SH-SY5Y; bilirubin 24 μM, PI 15%; median (IQ range), n = 5; 1 hr exposure
Description: as §1

SH-SY5Y cells = experiment: Cell cycle phase by flow cytometry (propidium iodide); type: cell-based, human; settings: bilirubin 24 μM, PI 15%, 1 and 24 hrs exposure, data not shown
Description: After centrifugation (310 x g; RT; 6 min), the sediments were re-suspended in 1 ml of staining solution in PBS containing 0.1% v/v Triton X-100, 20 μg/ml propidium iodide (PI), and 0.2 mg/ml DNAse free RNaseA. Samples were incubated in the dark for 30 min at RT, and subjected to FACS analysis (cytometer BD FACSCalibur TM; and CellQuest software, BD Biosciences, San Jose, CA). Data were collected for 10,000 events per sample.

[3] = test system: SH-SY5Y human neuroblastoma cell line; experiment: Cell viability (CellTiter-Glo and MTT); type: cell-based
Description: The SH-SY5Y human neuroblastoma cell line was used for the in vitro studies (ATCC, Manassas, VA, USA). Authentication of the cell line was confirmed by independent laboratory (Generi Biotech, Czech Republic). The cells were tested for Mycoplasma contamination using the MycoAlert luminescence test (Lonza, Switzerland). Cells were cultured in a mixture of MEM Eagle and Ham’s F12 media (1:1, v/v), containing 15% of fetal bovine serum, in 75 cm^2 culture flasks, at 37°C, in a 5% CO2 atmosphere. For functional tests, cells were seeded at a concentration of 50,000 cells per 1 cm^2.
The effect of bilirubin (24 μM), pure bilirubin PI (5%, 15%, and 30% of bilirubin PI in complete culture media), and the combination of bilirubin with bilirubin PI on cell viability was analyzed by both MTT (Sigma, Germany) as well as by luminescent CellTiter-Glo (Promega, USA) tests, using a Sunrise Microplate Reader (Tecan, Austria) and Synergy 2 Multi-mode Microplate Reader (BioTek, USA), respectively.

heme oxygenase (HMOX) = experiment: Heme oxygenase activity determination (CO by gas chromatography); type: cell-based, human; settings: SH-SY5Y; data not shown
Description: The activity of heme oxygenase (HMOX) was measured as described previously. In brief, culture media harvested from SH-SY5Y batches were added to CO-free, septum-sealed vials. CO released into the vial headspace was quantified using gas chromatography with a reduction gas analyzer (Peak Laboratories, Mountain View, CA, USA).

HMOX2 = experiment: Gene expression by real-time PCR: HMOX2; type: cell-based, human; settings: SH-SY5Y; bilirubin 24 μM, PI 15%; median (IQ range), n = 5; 1 hr exposure
Description: as §1

MDR1 = experiment: Gene expression by real-time PCR: MDR1; type: cell-based, human; settings: SH-SY5Y; bilirubin 24 μM, PI 15%; median (IQ range), n = 5
Description: as §1, with “The effect of bilirubin and bilirubin PI (24 μM bilirubin (corresponding to 140 nM Bf), 15% bilirubin PI, and a mixture of bilirubin and 15% PI) on the expression of genes involved in heme catabolism and in the regulation of the cell cycle (Table 1) was investigated in SH-SY5Y cells exposed to pigments for 1 and 24 hrs, respectively. Briefly,” for “Briefly,”, “The primers for the targeted genes and the two housekeeping genes [hypoxanthine-guanine phosphoribosyltransferase (Hprt1) and glyceraldehydes 3-phosphate dehydrogenase (Gapdh)] were designed using Beacon Designer 2.0 software (PREMIER Biosoft International, Palo Alto, CA, USA).” left out

[4] = molecular target: T1, human serum albumin (HSA); experiment: Characterization of albumin binding sites by circular dichroism (CD) spectroscopy with marker ligands
From the text: CD spectra were obtained using a J-810 spectropolarimeter (Jasco, Japan) and analyzed as described elsewhere. […] For determination of the subdomain for lumirubin binding two compounds were used, hemin and bilirubin, as marker ligands for subdomain IB and IIA, respectively.

T1 sequence (P02768 25-609): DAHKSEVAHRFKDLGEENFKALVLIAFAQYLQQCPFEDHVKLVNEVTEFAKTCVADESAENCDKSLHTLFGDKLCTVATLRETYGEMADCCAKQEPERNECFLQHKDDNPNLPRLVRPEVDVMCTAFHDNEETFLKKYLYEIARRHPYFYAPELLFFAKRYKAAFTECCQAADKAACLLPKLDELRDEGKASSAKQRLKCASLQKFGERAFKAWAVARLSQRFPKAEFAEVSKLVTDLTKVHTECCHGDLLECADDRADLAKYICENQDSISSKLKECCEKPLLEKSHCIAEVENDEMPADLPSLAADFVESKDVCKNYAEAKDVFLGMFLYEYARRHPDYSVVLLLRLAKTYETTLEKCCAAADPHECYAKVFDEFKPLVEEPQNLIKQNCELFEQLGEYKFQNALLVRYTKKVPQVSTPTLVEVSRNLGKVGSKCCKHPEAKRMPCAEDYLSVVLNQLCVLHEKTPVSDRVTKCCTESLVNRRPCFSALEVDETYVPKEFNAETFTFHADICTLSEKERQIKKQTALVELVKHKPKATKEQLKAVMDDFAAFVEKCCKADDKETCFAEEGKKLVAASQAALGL

With `C=CC1=C(C)/C(=C/c2[nH]c(Cc3[nH]c(/C=C4\NC(=O)C(C)=C4C=C)c(C)c3CCC(=O)O)c(CCC(=O)O)c2C)NC1=O` [bilirubin, Z,Z-Bilirubin IXα] the “Cyclin E mRNA expression” value (Cyclin E) was 78.9 (50–126) % of control, the “HMOX1 mRNA expression” value (HMOX1) was 232.2 (197–240) ^* % of control and the “Stability after 24 hrs in the incubation medium” value [1] was “stable”. The “MRP1 mRNA expression” value (MRP1) was 76.3 (71–90) % of control, the “Cyclin D1 mRNA expression” value (Cyclin D1) was 71.8 (64–157) % of control and the Kd [2] was 5.56 nM. For the same compound, the “Ka, binding constant bilirubin-(HSA-biliverdin)” value ([2]; bilirubin binding to HSA in presence of biliverdin) was “(1.1±0.4)·10^8 M^-1”, the “Ka, binding constant bilirubin-(HSA-gossypol)” value ([2]; bilirubin binding to HSA in presence of gossypol (displacer)) was “(1.4±0.2)·10^5 M^-1” and the “Ka, binding constant bilirubin-(HSA-lumirubin)” value ([2]; bilirubin binding to HSA in presence of lumirubin) was “(8.7±1.3)·10^7 M^-1”. For the same compound, the “BLVRA mRNA expression” value (BLVRA) was 142.9 (109–179) % of control, the “Effect on cell cycle progression” value (SH-SY5Y cells) was “no effect on the cell cycle progression” and the “Effect on cell viability, short-term exposure” value ([3]; 60 min exposure, data not shown) was “did not have any effect on cell viability”. For the same compound, the “Effect on cell viability, 24 hr” value ([3]; 24 hr, bilirubin 24 μM, PI up to 30%, n = 7) was “significantly reduced”, the “Effect on cell viability, 48 hr” value ([3]; 48 hr, bilirubin 24 μM, PI up to 30%, n = 4) was “significantly reduced” and the “Effect on HMOX activity” value (heme oxygenase (HMOX)) was “not translated onto increase of HMOX activity”. For the same compound, the “HMOX2 mRNA expression” value (HMOX2) was 130.3 (129–166) ^* % of control and the “MDR1 mRNA expression” value (MDR1) was 54.9 (35–84) % of control.

For `C=CC1=C(C)/C(=C/c2[nH]c(CC3=C(CCC(=O)O)C4(C)CC=C5C(=CC4=N3)NC(=O)C5C)c(CCC(=O)O)c2C)NC1=O` (stereo not shown) [lumirubin, Z-Lumirubin IXα], the “Concentration remaining after 24 hrs in the incubation medium” value [1] was 31%, the Kd ([2]; ligand bound to HSA alone, fluorescence quenching, read-out: Ka, binding constant for the ligand-HSA complex) was 1080 nM and the “Effect on bilirubin binding to HSA (CD signal)” value ([4]; both bilirubin and hemin bound to HSA, molar ratio 1/1/1) was “moderately affects bilirubin binding to HSA”. The “Localization of binding site on HSA” value ([4]; marker ligands hemin (IB) and bilirubin (IIA), molar ratio 1/1/1) was “subdomain IB” and the “Number of binding sites on HSA” value ([4]; pigment/HSA 1/1, 1.5 x 10^-5 mol/L, PBS pH 7.4) was “one binding site”.
